Reference: the NIST ThermoML archive (doi:10.1007/s10765-008-0506-x)

Columns and labels:
[1] = xn = mol fraction of the nth substance listed; conditions: Liquid, Hot wire method
[2] = 294.2 K, Liquid, Hot wire method

CCCCn1cc[n+](C)c1.F[P-](F)(F)(F)(F)F [1-butyl-3-methylimidazolium hexafluorophosphate] + O=C=O
thermal conductivity [W/m/K], [1]
Conditions | x2 = 0.108 | x2 = 0.22 | x2 = 0.328 | x2 = 0.42
294.4 K, 10000 kPa | 0.148 | 0.149 | 0.15 | 0.148
294.4 K, 20000 kPa | 0.15 | 0.151 | 0.152 | 0.149
314.5 K, 10000 kPa | 0.149 | 0.149 | 0.152 | 0.148
314.5 K, 20000 kPa | 0.151 | 0.152 | 0.153 | 0.148
334.2 K, 10000 kPa | 0.148 | 0.15 | 0.15 | 0.148
334.2 K, 20000 kPa | 0.151 | 0.152 | 0.151 | 0.149

Cn1ccnc1 [1-methylimidazole] + O=C=O
thermal conductivity [W/m/K], [1], 294.2 K
Conditions | x2 = 0 | x2 = 0.157 | x2 = 0.261 | x2 = 0.337 | x2 = 0.43
10000 kPa | 0.194 | 0.187 | 0.184 | 0.18 | 0.176
20000 kPa | 0.196 | 0.19 | 0.187 | 0.184 | 0.18

CCCCn1cc[n+](C)c1.F[B-](F)(F)F [1-butyl-3-methylimidazolium tetrafluoroborate] + O=C=O
thermal conductivity [W/m/K], [1]
Conditions | 294.2 K | 314.3 K | 334.3 K
10000 kPa, x2 = 0.169 | 0.173 | 0.173 | 0.173
10000 kPa, x2 = 0.308 | 0.17 | 0.169 | 0.169
10000 kPa, x2 = 0.422 | 0.171 | 0.17 | 0.169
20000 kPa, x2 = 0.169 | 0.174 | 0.175 | 0.175
20000 kPa, x2 = 0.308 | 0.172 | 0.17 | 0.17
20000 kPa, x2 = 0.422 | 0.171 | 0.17 | 0.169

Cn1ccnc1 [1-methylimidazole]
[2]
Conditions | thermal conductivity [W/m/K]
10000 kPa | 0.194
20000 kPa | 0.196
